Measured values taken from US20210330738A1, “ANTIMICROBIAL, BACTERIOPHAGE-DERIVED POLYPEPTIDES AND THEIR USE AGAINST GRAM-NEGATIVE BACTERIA” (CONTRAFECT CORPORATION, priority 2018, published 2021).

How the values were obtained:
[1] = system: P. aeruginosa strain PAO1; assay: MIC in Mueller-Hinton broth supplemented with 50% human plasma or human serum; type: cell-based, Pseudomonas aeruginosa; conditions: for Minimal inhibitory concentration, Human Plasma: Mueller-Hinton broth supplemented with 50% human plasma; for Minimal inhibitory concentration, Human Serum: Mueller-Hinton broth supplemented with 50% human serum
[2] = system: mature biofilms formed by P. aeruginosa strain ATCC 17647; assay: Minimal Biofilm Eradicating Concentration (MBEC), Calgary Biofilm Device, crystal violet; type: cell-based, Pseudomonas aeruginosa; conditions: P. aeruginosa ATCC 17647 mature biofilm, >95% biofilm biomass removed

## Protegrin 1
[1]
  Minimal inhibitory concentration, Human Plasma: 1 µg/mL
  Minimal inhibitory concentration, Human Serum: 4 µg/mL

## PGLa
[1]
  Minimal inhibitory concentration, Human Plasma: >64 µg/mL
  Minimal inhibitory concentration, Human Serum: >64 µg/mL

## T4 lysozyme [Peptide T4LYZ]
[2]
  MBEC: >64 µg/mL
[2]; listed as T4 lysozyme
  MBEC: > 64 µg/mL

## LL-37
[1]
  Minimal inhibitory concentration, Human Plasma: >64 µg/mL
  Minimal inhibitory concentration, Human Serum: >64 µg/mL
